Results on 2 compounds are retold here after patent US20170056496A1 (Sanofi, priority 2008, published 2017).

Read-outs that look alike come from different tables or passages of the source.

For data set [1] the following is noted: for Comments: toxicity statement: toxicity = ≧20% body weight loss or 10% drug death.
For another data set, the target named is T1, murine CD38 (Mus musculus, UniProt P56528).
T1 sequence (P56528 1-304): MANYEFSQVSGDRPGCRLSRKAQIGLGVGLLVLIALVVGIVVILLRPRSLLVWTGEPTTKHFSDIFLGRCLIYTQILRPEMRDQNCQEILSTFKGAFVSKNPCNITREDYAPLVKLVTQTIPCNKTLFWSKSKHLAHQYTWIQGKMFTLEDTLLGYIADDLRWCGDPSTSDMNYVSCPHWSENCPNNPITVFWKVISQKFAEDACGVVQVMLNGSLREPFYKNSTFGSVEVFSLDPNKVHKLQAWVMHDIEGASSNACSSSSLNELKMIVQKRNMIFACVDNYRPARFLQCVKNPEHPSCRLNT
Briefly: Cross-reactivity of the antibody with murine CD38. The format is binding.

The mark [2] stands for this setting: CPA alone, 286.1 mg/kg/inj (total 572.2), listed as CPA, 286.1 mg/kg.

Regarding `O=P1(N(CCCl)CCCl)NCCCO1` (stereo not shown) [cyclophosphamide], in data set [1] (setting [2]), the “deaths (deaths out of mice)” value was “⅗”. Also, the “Comments: toxicity statement” value is reported as “Toxicity” in data set [1] (CPA alone, 286.1 mg/kg/inj (total 572.2), 286.1 mg/kg) and “Toxic” in data set [1] (setting [2]). Moreover, the “deaths, percent of mice” value in data set [1] (CPA alone, 286.1 mg/kg/injection) stood at 60%. In addition, the “% BWC at nadir (day)” value in data set [1] (CPA alone, IV day 11, 15, 68.2 mg/kg/inj (total 136.4), nadir day 18) is listed as −3.8 (18) %; in data set [1] (CPA alone, IV day 11, 15, 110.0 mg/kg/inj (total 220.0), nadir day 17), −5.2 (17) %; in data set [1] (CPA alone, IV day 11, 15, 286.1 mg/kg/inj (total 572.2), nadir day 20), −21.2 (20) %. Also, in data set [1] (CPA alone, […] (total 354.8)), the “Comments: toxicity statement (HNTD = highest nontoxic dose)” value is “HNTD”.

“hu38SB19: humanized anti-CD38 monoclonal antibody 38SB19; VH SEQ ID NO: 66, VL chosen from SEQ ID NOS: 62 and 64”: the “% BWC at nadir (day)” value in data set [1] (mouse, in vivo, iv, 40 mg/kg) is “+5.4 (19) %”. Moreover, the “cross-reactivity with murine CD38” value in the data set with murine CD38 is listed as “lack of cross-reactivity”.
